Measured values: ChEMBL document CHEMBL1275576, “In vitro activity of tomopenem (CS-023/RO4908463) against anaerobic bacteria” (Antimicrob Agents Chemother, 2009)

Experiments:
Bacteroides ovatus = assay: Antimicrobial activity against Bacteroides ovatus ATCC 8483 by agar dilution method in presence of 5% laked sheep blood; assay type: functional
[1] = tested on: Fusobacterium necrophorum; assay: Antimicrobial activity against Fusobacterium necrophorum by agar dilution method in presence of 5% laked sheep blood; assay type: functional
[2] = tested on: Campylobacter ureolyticus; assay: Antimicrobial activity against Bacteroides ureolyticus NCTC 10941 by agar dilution method in presence of 5% laked sheep blood; assay type: functional
[3] = Antimicrobial activity against Parabacteroides distasonis ATCC 8503 by agar dilution method in presence of 5% laked sheep blood; assay type: functional
Fusobacterium sp. = assay: Antimicrobial activity against Fusobacterium sp. by agar dilution method in presence of 5% laked sheep blood; assay type: functional
Eggerthella lenta = assay: Antimicrobial activity against Eggerthella lenta by agar dilution method in presence of 5% laked sheep blood; assay type: functional
Phocaeicola vulgatus = assay: Antimicrobial activity against Bacteroides vulgatus by agar dilution method in presence of 5% laked sheep blood; assay type: functional
[4] = tested on: Peptostreptococcus anaerobius; assay: Antimicrobial activity against Peptostreptococcus anaerobius by agar dilution method in presence of 5% laked sheep blood; assay type: functional
Fusobacterium varium [5] = assay: Antimicrobial activity against Fusobacterium varium by agar dilution method in presence of 5% laked sheep blood; assay type: functional
Anaerococcus prevotii = assay: Antimicrobial activity against Anaerococcus prevotii ATCC 9321 by agar dilution method in presence of 5% laked sheep blood; assay type: functional
Bacteroides uniformis = assay: Antimicrobial activity against Bacteroides uniformis by agar dilution method in presence of 5% laked sheep blood; assay type: functional
Finegoldia magna = assay: Antimicrobial activity against Finegoldia magna by agar dilution method in presence of 5% laked sheep blood; assay type: functional
Bacteroides stercoris = assay: Antimicrobial activity against Bacteroides stercoris by agar dilution method in presence of 5% laked sheep blood; assay type: functional
Atopobium parvulum = assay: Antimicrobial activity against Atopobium parvulum VPI 0546 by agar dilution method in presence of 5% laked sheep blood; assay type: functional; settings: Lancefieldella parvula
Prevotella sp. = assay: Antimicrobial activity against Prevotella sp. by agar dilution method in presence of 5% laked sheep blood; assay type: functional
Fusobacterium nucleatum [6] = assay: Antimicrobial activity against Fusobacterium nucleatum ATCC 25586 by agar dilution method in presence of 5% laked sheep blood; assay type: functional
Parvimonas micra = assay: Antimicrobial activity against Parvimonas micra by agar dilution method in presence of 5% laked sheep blood; assay type: functional
Bacteroides fragilis [7] = assay: Antimicrobial activity against Bacteroides fragilis GAI 10150 by agar dilution method in presence of 5% laked sheep blood; assay type: functional
[8] = tested on: Peptoniphilus asaccharolyticus; assay: Antimicrobial activity against Peptoniphilus asaccharolyticus by agar dilution method in presence of 5% laked sheep blood; assay type: functional
Clostridium perfringens = assay: Antimicrobial activity against Clostridium perfringens by agar dilution method in presence of 5% laked sheep blood; assay type: functional
[9] = Antimicrobial activity against Finegoldia magna ATCC 29328 by agar dilution method in presence of 5% laked sheep blood; assay type: functional
[10] = tested on: Lactiplantibacillus plantarum; assay: Antimicrobial activity against Lactobacillus plantarum JCM 1149 by agar dilution method in presence of 5% laked sheep blood; assay type: functional
Bacteroides fragilis [11] = assay: Antimicrobial activity against Bacteroides fragilis by agar dilution method in presence of 5% laked sheep blood; assay type: functional
[12] = tested on: Streptococcus constellatus; assay: Antimicrobial activity against Streptococcus constellatus ATCC 27923 by agar dilution method in presence of 5% laked sheep blood; assay type: functional
Prevotella bivia = assay: Antimicrobial activity against Prevotella bivia ATCC 29303 by agar dilution method in presence of 5% laked sheep blood; assay type: functional; settings: DSM 20514
Lactobacillus salivarius = assay: Antimicrobial activity against Lactobacillus salivarius subsp. salivarius JCM 1231 by agar dilution method in presence of 5% laked sheep blood; assay type: functional; settings: Ligilactobacillus salivarius
Lacticaseibacillus casei = assay: Antimicrobial activity against Lactobacillus casei subsp. casei JCM 1134 by agar dilution method in presence of 5% laked sheep blood; assay type: functional
[13] = tested on: Bacteroides eggerthii DSM 20697; assay: Antimicrobial activity against Bacteroides eggerthii ATCC 27754 by agar dilution method in presence of 5% laked sheep blood; assay type: functional
[14] = tested on: Bacteroides thetaiotaomicron; assay: Antimicrobial activity against Bacteroides thetaiotaomicron by agar dilution method in presence of 5% laked sheep blood; assay type: functional
[15] = tested on: Peptostreptococcus anaerobius; assay: Antimicrobial activity against Peptostreptococcus anaerobius ATCC 27337 by agar dilution method in presence of 5% laked sheep blood; assay type: functional
Fusobacterium varium [16] = assay: Antimicrobial activity against Fusobacterium varium ATCC 8501 by agar dilution method in presence of 5% laked sheep blood; assay type: functional
[17] = Antimicrobial activity against Desulfovibrio piger DSM 749 by agar dilution method in presence of 5% laked sheep blood; assay type: functional, Desulfovibrio piger ATCC 29098
[18] = tested on: Bifidobacterium pseudolongum; assay: Antimicrobial activity against Bifidobacterium pseudolongum ATCC 25526 by agar dilution method in presence of 5% laked sheep blood; assay type: functional
Capnocytophaga ochracea = assay: Antimicrobial activity against Capnocytophaga ochracea GAI 5586 by agar dilution method in presence of 5% laked sheep blood; assay type: functional
[19] = tested on: Limosilactobacillus fermentum; assay: Antimicrobial activity against Lactobacillus fermentum JCM 1173 by agar dilution method in presence of 5% laked sheep blood; assay type: functional
Bacteroides fragilis [20] = assay: Antimicrobial activity against carbapenemase-producing Bacteroides fragilis GAI 30079 by agar dilution method in presence of 5% laked sheep blood; assay type: functional
[21] = tested on: Porphyromonas asaccharolytica; assay: Antimicrobial activity against Porphyromonas asaccharolyticus by agar dilution method in presence of 5% laked sheep blood; assay type: functional
[22] = tested on: Parabacteroides distasonis; assay: Antimicrobial activity against Parabacteroides distasonis by agar dilution method in presence of 5% laked sheep blood; assay type: functional
Eubacterium limosum = assay: Antimicrobial activity against Eubacterium limosum by agar dilution method in presence of 5% laked sheep blood; assay type: functional
Prevotella denticola = assay: Antimicrobial activity against Prevotella denticola GAI 5490 by agar dilution method in presence of 5% laked sheep blood; assay type: functional
Fusobacterium nucleatum [23] = assay: Antimicrobial activity against Fusobacterium nucleatum by agar dilution method in presence of 5% laked sheep blood; assay type: functional
[24] = tested on: Prevotella melaninogenica; assay: Antimicrobial activity against Prevotella melaninogenica by agar dilution method in presence of 5% laked sheep blood; assay type: functional
Fusobacterium mortiferum = assay: Antimicrobial activity against Fusobacterium mortiferum by agar dilution method in presence of 5% laked sheep blood; assay type: functional
Clostridioides difficile = assay: Antimicrobial activity against Clostridium difficile by agar dilution method in presence of 5% laked sheep blood; assay type: functional

In the case of `Cc1ncc([N+](=O)[O-])n1CCO` [METRONIDAZOLE], the MIC (Bacteroides ovatus) is reported as 2 mg/L, the MIC50 [1] is reported as ≤ 0.015 mg/L and the MIC90 [1] is reported as 0.5 mg/L. For the same compound, the MIC [2] was 2 mg/L, the MIC [3] was 1 mg/L and the MIC50 (Fusobacterium sp.) was ≤ 0.015 mg/L. For the same compound, the MIC90 (Fusobacterium sp.) was 0.5 mg/L, the MIC50 (Eggerthella lenta) was 0.5 mg/L and the MIC90 (Eggerthella lenta) was 0.5 mg/L. It also gave an MIC50 (Phocaeicola vulgatus) of 0.5 mg/L, an MIC90 (Phocaeicola vulgatus) of 1 mg/L and an MIC50 [4] of 0.125 mg/L. The MIC90 [4] was 0.5 mg/L, the MIC50 (Fusobacterium varium [5]) was ≤ 0.015 mg/L and the MIC90 (Fusobacterium varium [5]) was 0.5 mg/L. For the same compound, the MIC (Anaerococcus prevotii) was 2 mg/L, the MIC50 (Bacteroides uniformis) was 0.5 mg/L and the MIC90 (Bacteroides uniformis) was 1 mg/L. It also gave an MIC50 (Finegoldia magna) of 0.5 mg/L, an MIC90 (Finegoldia magna) of 1 mg/L and an MIC50 (Bacteroides stercoris) of 0.5 mg/L. It also gave an MIC90 (Bacteroides stercoris) of 1 mg/L, an MIC (Atopobium parvulum) of 0.5 mg/L and an MIC50 (Prevotella sp.) of 1 mg/L. For the same compound, the MIC90 (Prevotella sp.) was 2 mg/L, the MIC (Fusobacterium nucleatum [6]) was ≤ 0.015 mg/L and the MIC50 (Parvimonas micra) was 0.5 mg/L. The MIC90 (Parvimonas micra) was 1 mg/L, the MIC (Bacteroides fragilis [7]) was 1 mg/L and the MIC50 [8] was 1 mg/L. The MIC90 [8] was 2 mg/L, the MIC50 (Clostridium perfringens) was 1 mg/L and the MIC90 (Clostridium perfringens) was 2 mg/L. The MIC [9] was 1 mg/L, the MIC [10] was > 128 mg/L and the MIC50 (Bacteroides fragilis [11]) was 0.5 mg/L. The MIC90 (Bacteroides fragilis [11]) was 1 mg/L, the MIC [12] was > 128 mg/L and the MIC (Prevotella bivia) was 2 mg/L. For the same compound, the MIC (Lactobacillus salivarius) was > 128 mg/L, the MIC (Lacticaseibacillus casei) was > 128 mg/L and the MIC [13] was 0.5 mg/L. The MIC50 [14] was 0.5 mg/L, the MIC90 [14] was 2 mg/L and the MIC [15] was 0.125 mg/L. The MIC (Fusobacterium varium [16]) was 0.25 mg/L, the MIC [17] was 0.25 mg/L and the MIC [18] was > 128 mg/L. The MIC (Capnocytophaga ochracea) was 1 mg/L, the MIC [19] was > 128 mg/L and the MIC (Bacteroides fragilis [20]) was 1 mg/L. For the same compound, the MIC50 [21] was 0.06 mg/L, the MIC90 [21] was 0.25 mg/L and the MIC50 [22] was 0.5 mg/L. The MIC90 [22] was 1 mg/L, the MIC50 (Eubacterium limosum) was 0.5 mg/L and the MIC90 (Eubacterium limosum) was 0.5 mg/L. The MIC (Prevotella denticola) was 0.25 mg/L, the MIC50 (Fusobacterium nucleatum [23]) was ≤ 0.015 mg/L and the MIC90 (Fusobacterium nucleatum [23]) was 0.5 mg/L. The MIC50 [24] was 1 mg/L, the MIC90 [24] was 2 mg/L and the MIC50 (Fusobacterium mortiferum) was ≤ 0.015 mg/L. The MIC90 (Fusobacterium mortiferum) was 0.5 mg/L, the MIC50 (Clostridioides difficile) was 1 mg/L and the MIC90 (Clostridioides difficile) was 1 mg/L.
With `C[C@@H](O)[C@H]1C(=O)N2C(C(=O)O)=C(S[C@H]3C[C@@H](C(=O)N4CC[C@H](NC(=O)CNC(=N)N)C4)N(C)C3)[C@H](C)[C@H]12` [TOMOPENEM] the MIC (Bacteroides ovatus) was 0.5 mg/L, the MIC50 [1] was ≤ 0.015 mg/L and the MIC90 [1] was 0.5 mg/L. For the same compound, the MIC [2] was 0.03 mg/L, the MIC [3] was 0.25 mg/L and the MIC50 (Fusobacterium sp.) was ≤ 0.015 mg/L. The MIC90 (Fusobacterium sp.) was 0.5 mg/L, the MIC50 (Eggerthella lenta) was 0.5 mg/L and the MIC90 (Eggerthella lenta) was 0.5 mg/L. For the same compound, the MIC50 (Phocaeicola vulgatus) was 0.5 mg/L, the MIC90 (Phocaeicola vulgatus) was 4 mg/L and the MIC50 [4] was 0.5 mg/L. For the same compound, the MIC90 [4] was 4 mg/L, the MIC50 (Fusobacterium varium [5]) was ≤ 0.015 mg/L and the MIC90 (Fusobacterium varium [5]) was 0.5 mg/L. It also gave an MIC (Anaerococcus prevotii) of 0.125 mg/L, an MIC50 (Bacteroides uniformis) of 0.5 mg/L and an MIC90 (Bacteroides uniformis) of 4 mg/L. It also gave an MIC50 (Finegoldia magna) of 0.06 mg/L, an MIC90 (Finegoldia magna) of 0.125 mg/L and an MIC50 (Bacteroides stercoris) of 0.5 mg/L. For the same compound, the MIC90 (Bacteroides stercoris) was 4 mg/L, the MIC (Atopobium parvulum) was 0.5 mg/L and the MIC50 (Prevotella sp.) was 0.125 mg/L. It also gave an MIC90 (Prevotella sp.) of 0.5 mg/L, an MIC (Fusobacterium nucleatum [6]) of 2 mg/L and an MIC50 (Parvimonas micra) of 0.125 mg/L. The MIC90 (Parvimonas micra) was 0.125 mg/L, the MIC (Bacteroides fragilis [7]) was 4 mg/L and the MIC50 [8] was ≤ 0.015 mg/L. The MIC90 [8] was 0.06 mg/L, the MIC50 (Clostridium perfringens) was ≤ 0.015 mg/L and the MIC90 (Clostridium perfringens) was 0.06 mg/L. The MIC [9] was 0.125 mg/L, the MIC [10] was 0.06 mg/L and the MIC50 (Bacteroides fragilis [11]) was 0.25 mg/L. It also gave an MIC90 (Bacteroides fragilis [11]) of 1 mg/L, an MIC [12] of 0.25 mg/L and an MIC (Prevotella bivia) of 0.5 mg/L. The MIC (Lactobacillus salivarius) was 0.5 mg/L, the MIC (Lacticaseibacillus casei) was 1 mg/L and the MIC [13] was 0.125 mg/L. The MIC50 [14] was 0.5 mg/L, the MIC90 [14] was 2 mg/L and the MIC [15] was 0.5 mg/L. For the same compound, the MIC (Fusobacterium varium [16]) was 0.5 mg/L, the MIC [17] was 0.03 mg/L and the MIC [18] was 0.125 mg/L. For the same compound, the MIC (Capnocytophaga ochracea) was 0.06 mg/L, the MIC [19] was 0.125 mg/L and the MIC (Bacteroides fragilis [20]) was > 128 mg/L. It also gave an MIC50 [21] of 0.03 mg/L, an MIC90 [21] of 0.06 mg/L and an MIC50 [22] of 0.5 mg/L. For the same compound, the MIC90 [22] was 4 mg/L, the MIC50 (Eubacterium limosum) was 0.5 mg/L and the MIC90 (Eubacterium limosum) was 0.5 mg/L. For the same compound, the MIC (Prevotella denticola) was 0.06 mg/L, the MIC50 (Fusobacterium nucleatum [23]) was ≤ 0.015 mg/L and the MIC90 (Fusobacterium nucleatum [23]) was 0.5 mg/L. For the same compound, the MIC50 [24] was 0.125 mg/L, the MIC90 [24] was 0.5 mg/L and the MIC50 (Fusobacterium mortiferum) was ≤ 0.015 mg/L. The MIC90 (Fusobacterium mortiferum) was 0.5 mg/L, the MIC50 (Clostridioides difficile) was 1 mg/L and the MIC90 (Clostridioides difficile) was 2 mg/L.
